Data as given in patent US20260216169A1, “NAPHTHYLAMIDE COMPOUND, AND PREPARATION METHOD THEREFOR AND USE THEREOF” (SHENZHEN CHIPSCREEN BIOSCIENCES CO., LTD., priority 2022, published 2026).

How the values were obtained:
[1] = target: T1, VEGFR2 (Homo sapiens, UniProt P35968); assay: HTRF KinEASE test against VEGFR2, reported as relative selectivity IC50-VEGFR2/IC50-Aurora B; type: biochemical; conditions: ratio of IC50 against VEGFR2 to IC50 against Aurora B
T1 construct: purchased Carna 08-191
T1 sequence (P35968 790-1356 limits assumed): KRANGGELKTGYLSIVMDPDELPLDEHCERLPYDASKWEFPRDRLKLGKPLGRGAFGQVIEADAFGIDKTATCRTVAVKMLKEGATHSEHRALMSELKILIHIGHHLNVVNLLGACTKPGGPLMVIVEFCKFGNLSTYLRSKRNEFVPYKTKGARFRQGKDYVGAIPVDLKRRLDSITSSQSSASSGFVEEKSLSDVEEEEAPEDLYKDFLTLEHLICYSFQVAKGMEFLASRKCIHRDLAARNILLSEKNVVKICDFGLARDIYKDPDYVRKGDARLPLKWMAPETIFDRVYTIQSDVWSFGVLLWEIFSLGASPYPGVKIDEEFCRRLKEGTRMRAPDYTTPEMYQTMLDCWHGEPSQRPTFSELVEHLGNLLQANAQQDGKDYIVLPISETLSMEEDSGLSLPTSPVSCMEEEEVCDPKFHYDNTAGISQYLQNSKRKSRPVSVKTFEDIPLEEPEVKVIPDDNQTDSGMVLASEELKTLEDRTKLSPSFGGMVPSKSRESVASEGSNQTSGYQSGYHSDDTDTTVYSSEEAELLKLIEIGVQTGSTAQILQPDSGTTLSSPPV
Protocol: (§1) Preparation of working solutions of compounds in DMSO with gradient concentrations: 0.2 mM solutions of the compounds in DMSO were prepared and serially diluted with DMSO to form working solutions with 10 gradient concentrations (corresponding to final compound concentrations of 1000 nM, 300 nM, 100 nM, 30 nM, 10 nM, 3 nM, 1 nM, 0.3 nM, 0.1 nM, and 0.03 nM in the reaction system).
(§2) Tests of inhibitory activity against Aurora B kinase and VEGFR2: The half maximal inhibitory concentrations (IC50) of the compounds against Aurora B kinase and VEGFR2 were determined using HTRF KinEASE-TK kit (Cisbio, Cat #62TKOPEC) and HTRF KinEASE-STK kit (Cisbio, Cat #61ST2BLE). A 2× kinase & Metal solution (Aurora B/Cat #05-102 and VEGFR2/Cat #08-191, both purchased from Carna) and a 2× Substrate & ATP solution (for Aurora B and VEGFR2, substrates S2 and TK were used, respectively) were prepared according to the kit instructions. The working solutions of the test compounds with gradient concentrations were added to a 384-well plate at 25 nL/well, and 2.5 μL of the 2× kinase & Metal solution was added to each well. The plate was sealed with a plate-sealing film, well shaken, centrifuged, and then incubated at 25° C. for 10 min. Then, the 2× Substrate & ATP solution was added at 2.5 μL/well, and the plate was incubated again at 25° C. for 30 min. Finally, a 2× XL665 & Antibody kinase detection reaction solution was added at 5 μL/well. After the plate was incubated at 25° C. for 60 min, the fluorescence signals at wavelengths of 665 nm and 620 nm in each well were measured by a microplate reader.
(§3) The 665 nm/620 nm fluorescence signal ratio (X) of each well was calculated. With the compound-free well as a negative control (Y) and the enzyme-free well as a positive control (Z), the inhibition rate of the compound in each test well against the corresponding kinase was calculated using the formula: inhibition (%)=100%−(X−Z)/(Y−Z)×100%, and the half maximal inhibitory concentration (IC50) of each compound against the corresponding kinase was calculated by GraphPad 7.0 software.

[2] = system: Molt-4 cells; assay: Effects on tumor cell cycle, PI staining and flow cytometry; type: cell-based, human; conditions: 48 h
Excerpt: When the activity of Aurora B kinase is inhibited in tumor cells, the arrangement and separation of chromosomes are blocked, leading to cytokinesis failure and the formation of tetraploid or polyploid cells. Moreover, severe genomic instability and mitotic catastrophe result in apoptosis. The intracellular DNA content can be mapped with propidium iodide (PI), a fluorescent dye that specifically binds to nucleic acid, so that cell states can be distinguished into sub-G0/G1 (apoptosis), G0/G1, S, G2/M (tetraploid), and polyploid states.
Experimental process: Molt-4 cells (human acute lymphoblastic leukemia cells, CRL-1582) were purchased from the American Type Culture Collection (ATCC). Molt-4 cells in the logarithmic growth phase were collected from suspension culture and counted. The cells were seeded into a 6-well plate at 10^6 cells/well and cultured overnight under normal conditions. The test compounds were prepared as 1 mM and 3 mM solutions in DMSO, and the solutions in DMSO were diluted 50-fold with culture medium. Finally, the above solutions were added to the culture system in a volume ratio of 1:19, achieving a final compound concentration of 1 μM or 3 μM in each well. After 48 h of incubation, the cells were collected by centrifugation. Each cell sample was resuspended in 300 μL of PBS, and the suspension was added dropwise to 700 μL of pre-cooled absolute ethanol. Then the mixture was gently inverted several times for thorough mixing to complete cell collection and fixation. The samples were left to stand at 4° C. for more than 12 h and then analyzed by flow cytometry.
A working dye solution was prepared by homogeneously mixing PBS, a 10 mg/mL PI stock solution, and a 10 mg/mL RNase A solution in a ratio of 1000:5:2. The fixed cell samples were centrifuged at 4° C. and 1000 rpm for 10 min. The supernatants were completely removed using a pipette, and the cells were washed twice with PBS and resuspended in the above working dye solution at […]. After incubation in a dark place at 37° C. for 30 min, the cells were filtered using a 200-mesh stainless steel strainer, and the filtrate was loaded onto a flow cytometer for cell cycle analysis (10,000 cells counted per sample).
Histograms showing DNA contents were obtained from the flow cytometry analysis, and the cell cycle distribution in each sample was analyzed using the flow cytometry data analysis software FlowJo. The mean (X) and standard deviation (SD) were calculated, and data were represented as X±SD. The apoptosis and the proportions of tetraploid and polyploid cells after Molt-4 cells were treated with different doses of the test compounds are shown in Table 3 below.

[3] = Brain permeation assay in mice; type: in vivo; conditions: B/C, mouse, oral; female mice, 5 mg/kg intragastric, 4 h after administration; read-out: Brain permeation (ratio of compound concentration in brain tissue to concentration in plasma)
Protocol: The objective of this example was to test whether the compounds of the present disclosure are able to cross the blood-brain barrier (BBB). The compounds of the present disclosure were dissolved in a vehicle containing 5% dimethyl sulfoxide, 60% 1,3-propanediol, and 35% purified water, and intragastrically administered to B/C female mice aged 6 weeks (purchased from Guangdong Medical Laboratory Animal Center) at 5 mg/kg. The animals were sacrificed 4 h after the administration, and blood and brain tissue samples were collected. The blood samples were anticoagulated with K2-EDTA and centrifuged at 5000 rpm for 5 min to separate plasma. The brain tissue samples were accurately weighed and homogenized with a certain amount of phosphate-buffered saline (PBS) solution, and the biological samples were stored at −80° C. before analysis. After sample extraction, the compound concentration was determined using a liquid chromatography-tandem mass spectrometry (LC-MS/MS) system. Brain permeation was defined as the ratio of the compound concentration in brain tissue to the concentration in plasma.

[4] = system: PANC02 cells; assay: Anti-tumor efficacy in PANC02 mouse pancreatic cancer graft tumor model; type: in vivo, C57BL/6 mice; conditions: for Mean tumor volumes (mm^3 ± SEM), Day 9 / Tumor volume inhibition rate (% TGI), Day 9: 10 mg/kg/day intragastric once daily; for Mean tumor volumes (mm^3 ± SEM), Day 0: 10 mg/kg/day intragastric, grouping and administration Day 0
Excerpt: A mouse PANC02 pancreatic cancer graft tumor model was constructed: the experimental animals were C57BL/6 mice (female, 6 weeks old), the tumor cells were PANC02 cells (mouse pancreatic cancer cells), and the cell culture medium was a DMEM culture medium containing 1% double antibiotic and 10% fetal bovine serum. PANC02 cells in the logarithmic growth phase and in good condition were collected and inoculated subcutaneously into the left flank of C57BL/6 mice at a concentration of 0.9×10^6 cells/0.2 mL. The long diameters (a, mm) and short diameters (b, mm) of the tumors were measured using a vernier caliper, and tumor volume (V, mm^3) was calculated using the formula: V=½a×b^2. Tumor volume was measured 2-3 times weekly using the vernier caliper. When the mean tumor volumes of the mice reached 190 mm^3 or above, the mice were divided into 4 groups of 8 and dosed, and the day of grouping was represented by day 0. The groups were as follows: a solvent control group (0.2% aqueous solution of CMC-Na), a compound I-9 group (10 mg/kg/day), a control molecule 01 (chiauranib) group (10 mg/kg/day), and a control molecule 02 group (10 mg/kg/day). All four groups received intragastric administration once daily for consecutive days, and the experiment was terminated on the day of the last dose.
The tumor volume results were represented as mean and standard error (Mean±S.E.M). Intergroup comparisons were performed using the Mann Whitney test. If p<0.05, the difference is considered to be statistically significant. The tumor volume inhibition rate (TGI) was calculated using the formula: TGI (%)=[1−(Ti−T0)/(Vi−V0)]×100% (Ti: mean tumor volume of the treatment group on day i of administration; TO: mean tumor volume of the treatment group on day 0 of administration; Vi: mean tumor volume of the solvent control group on day i of administration; V0: mean tumor volume of the solvent control group on day 0 of administration).

[5] = target: T2, Aurora B kinase (Homo sapiens, UniProt Q96GD4); assay: In vitro cytological assays of Aurora B kinase inhibition; type: cell-based; set-up: dose or concentration left out as unconfirmed
Target sequence in this assay (Q96GD4 whole entry): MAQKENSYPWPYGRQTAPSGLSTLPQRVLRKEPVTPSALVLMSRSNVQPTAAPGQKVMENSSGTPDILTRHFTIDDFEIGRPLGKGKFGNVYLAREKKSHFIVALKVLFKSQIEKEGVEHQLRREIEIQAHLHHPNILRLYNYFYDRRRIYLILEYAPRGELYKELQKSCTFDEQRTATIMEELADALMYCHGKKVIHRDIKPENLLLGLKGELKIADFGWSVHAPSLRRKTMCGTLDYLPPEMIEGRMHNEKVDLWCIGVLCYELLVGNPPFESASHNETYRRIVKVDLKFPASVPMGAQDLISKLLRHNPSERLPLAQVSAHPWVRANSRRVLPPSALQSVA

[6] = human, 65-mg treatment group, phase I; cited from earlier work
[7] = target: T2, Aurora B kinase; assay: HTRF KinEASE test of inhibitory activity against Aurora B kinase; type: biochemical; set-up: purchased Carna 05-102; conditions: Carna kinase, substrate S2
Protocol: as §1, §2, §3
Target sequence in this assay (Q96GD4 whole entry): as above
Target sequence in this assay (Q9NQS7 803-916 partner limits assumed): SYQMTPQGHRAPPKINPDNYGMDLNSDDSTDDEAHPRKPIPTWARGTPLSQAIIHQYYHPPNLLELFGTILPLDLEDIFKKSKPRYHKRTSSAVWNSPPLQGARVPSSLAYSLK

| SMILES | Selectivity for Aurora B IC50-VEGFR2/IC50-Aurora B [1] | Apoptosis (%) DNA < 2N ([2]; dose 1 μM) | Polyploid (%) DNA > 4N ([2]; dose 1 μM) | Tetraploid (%) DNA = 4N ([2]; dose 1 μM) | Total (apoptosis + tetraploid + polyploid) ([2]; dose 1 μM) | Apoptosis (%) DNA < 2N ([2]; dose 3 μM) | Polyploid (%) DNA > 4N ([2]; dose 3 μM) | Tetraploid (%) DNA = 4N ([2]; dose 3 μM) | Total (apoptosis + tetraploid + polyploid) ([2]; dose 3 μM) | Kp at 4 h [3] | Mean tumor volumes (mm^3 ± SEM), Day 9 [4] | Tumor volume inhibition rate (% TGI), Day 9 [4] | Mean tumor volumes (mm^3 ± SEM), Day 0 [4] | IC50 [7] | further results |
| --- | --- | --- | --- | --- | --- | --- | --- | --- | --- | --- | --- | --- | --- | --- | --- |
| COc1ccc2c(Oc3ccc4c(C(=O)Nc5ccccc5N)cccc4c3)ccnc2c1 [Control molecule 01, chiauranib, reference compound] | 1.54 | 10.23 ± 0.67% | 3.73 ± 2.95% | 14.80 ± 6.51% | 28.76 | 16.40 ± 6.65% | 6.40 ± 5.66% | 16.25 ± 8.13% | 39.05 | 0.28 | 278.4 ± 35.6 mm^3 | 74.6% | 191.5 ± 33.9 mm^3 | 10.8 nM | Tumor volume inhibition rate (% TGI), Day 9 ([4]; listed as control molecule 01): 74.6%; Inhibitory activity against Aurora B kinase [5]: relatively weak inhibitory activity; Dose-limiting toxicity (DLT) [6]: grade 3 hypertension |
| COc1ccc2c(Oc3ccc4c(C(=O)Nc5ccc(F)cc5N)cccc4c3)ccnc2c1 [Control molecule 02, reference compound] | 4.16 | 10.07 ± 1.18% | 7.94 ± 3.77% | 18.05 ± 0.35% | 36.06 | 23.80 ± 2.26% | 55.70 ± 1.41% | 8.40 ± 4.96% | 87.90 | 0.27 | 299.3 ± 68.2 mm^3 | 68.9% | 192.7 ± 36 mm^3 | 2.08 nM | Tumor volume inhibition rate (% TGI), Day 9 ([4]; listed as control molecule 02): 68.9% |
| COc1ccc2c(Oc3ccc4c(C(=O)Nc5ccc(F)c(F)c5N)cccc4c3)ccnc2c1 [Compound I-9] | 17.57 | 24.60 ± 8.06% | 55.15 ± 15.20% | 6.07 ± 7.25% | 85.82 | 21.35 ± 5.87% | 56.10 ± 12.02% | 5.39 ± 6.10% | 82.84 | 0.6 | 145.9 ± 38.5 mm^3 | 114.0% | 193.9 ± 38.5 mm^3 | 1.79 nM | Tumor volume compared with solvent control group ([4]; Day 9, Mann Whitney test, p<0.001): significantly reduced tumor volumes; Tumor volume compared with control molecule 01 (chiauranib) group ([4]; Day 9, Mann Whitney test, p<0.01): significantly reduced tumor volumes; Tumor volume compared with control molecule 02 group ([4]; Day 9, Mann Whitney test, p<0.05): significantly reduced tumor volumes |
